According to ChEMBL document CHEMBL1201862, “PubChem BioAssay data set” (2004):
Calls of active or inactive are those of the source.

Key:
[1] = cytotoxicity in KRAS-transformed pancreatic duct cells, primary screen, cell-based, fluorescence, HTS (AID 431); format: functional; settings: Homo sapiens;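 also: cell line used: HPDE-C7K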
[2] = biological target: Estrogen receptor beta (Homo sapiens, UniProt Q92731); test: ERβ–SRC-3 coactivator interaction inhibitors, confirmation, orthogonal assay, biochemical, ELISA, streptavidin-HRP readout (AID 1060)
Sequence of Estrogen receptor beta (Q92731 whole entry): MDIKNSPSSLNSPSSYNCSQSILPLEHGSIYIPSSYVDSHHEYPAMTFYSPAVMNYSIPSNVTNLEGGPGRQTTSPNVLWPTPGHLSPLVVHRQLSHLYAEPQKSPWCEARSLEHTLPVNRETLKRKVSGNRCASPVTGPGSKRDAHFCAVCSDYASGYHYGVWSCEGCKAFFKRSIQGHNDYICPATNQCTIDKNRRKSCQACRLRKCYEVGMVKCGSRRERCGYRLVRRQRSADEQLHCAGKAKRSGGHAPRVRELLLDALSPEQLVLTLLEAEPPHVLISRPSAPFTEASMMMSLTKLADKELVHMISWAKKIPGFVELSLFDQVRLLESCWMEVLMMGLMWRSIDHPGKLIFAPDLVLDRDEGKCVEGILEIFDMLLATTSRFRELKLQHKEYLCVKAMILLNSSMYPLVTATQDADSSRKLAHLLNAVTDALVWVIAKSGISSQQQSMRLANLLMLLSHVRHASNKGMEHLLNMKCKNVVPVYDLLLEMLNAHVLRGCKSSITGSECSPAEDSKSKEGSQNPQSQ

[3] = Artemis endonuclease inhibitor potency, dose response, biochemical, fluorescence intensity (AID 720701); format: functional;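 also: Artemis endonuclease enzyme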
[4] = biological target: Protein Tat (Human immunodeficiency virus type 1 group M subtype B (isolate HXB2)(HIV-1), UniProt P04608); format: functional;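 also: tat binding to TAR RNA read out by fluorescence polarization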
Sequence of Protein Tat (P04608 whole entry): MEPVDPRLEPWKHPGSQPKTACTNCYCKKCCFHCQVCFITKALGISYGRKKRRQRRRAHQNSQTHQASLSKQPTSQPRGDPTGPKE

[5] = cytotoxicity in HPDE-C7 cells, cell-based, fluorescence, HTS (AID 430); format: functional; settings: Homo sapiens
[6] = THP-1 cell cytotoxicity, dose response, cytotoxicity control for Vif-APOBEC3G degradation inhibitor project, THP-1 cells (AID 1117359); format: functional; settings: Human immunodeficiency virus 1, THP-1
[7] = biological target: Dual specificity protein phosphatase 6 (Rattus norvegicus, UniProt Q64346); test: MKP-3 phosphatase inhibitors, primary screen, biochemical, rat enzyme, in vitro (AID 425)
Sequence of Dual specificity protein phosphatase 6 (Q64346 whole entry): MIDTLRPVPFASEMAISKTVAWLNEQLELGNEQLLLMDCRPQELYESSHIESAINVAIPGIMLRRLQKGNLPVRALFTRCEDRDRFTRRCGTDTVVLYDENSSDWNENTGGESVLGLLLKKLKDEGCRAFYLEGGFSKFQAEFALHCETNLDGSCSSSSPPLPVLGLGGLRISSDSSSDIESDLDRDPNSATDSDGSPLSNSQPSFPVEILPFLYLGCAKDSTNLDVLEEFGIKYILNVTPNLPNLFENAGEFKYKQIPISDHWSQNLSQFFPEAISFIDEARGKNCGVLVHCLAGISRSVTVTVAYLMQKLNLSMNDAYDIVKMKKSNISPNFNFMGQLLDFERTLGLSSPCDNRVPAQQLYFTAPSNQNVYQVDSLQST

[8] = inhibitors of Vif binding to APOBEC3G peptide, primary screen, biochemical, TR-FRET, GST-Vif 1-94, biotin-A3G peptide, dose response retest (AID 1117319); format: functional;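 also: TR-FRET signal of purified GST-Vif binding a biotinylated A3G peptide; inhibitors lower the FRET signal by blocking Vif and A3G binding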
[9] = biological target: 5-hydroxytryptamine receptor 1A (Homo sapiens, UniProt P08908); format: functional
Sequence of 5-hydroxytryptamine receptor 1A (P08908 whole entry): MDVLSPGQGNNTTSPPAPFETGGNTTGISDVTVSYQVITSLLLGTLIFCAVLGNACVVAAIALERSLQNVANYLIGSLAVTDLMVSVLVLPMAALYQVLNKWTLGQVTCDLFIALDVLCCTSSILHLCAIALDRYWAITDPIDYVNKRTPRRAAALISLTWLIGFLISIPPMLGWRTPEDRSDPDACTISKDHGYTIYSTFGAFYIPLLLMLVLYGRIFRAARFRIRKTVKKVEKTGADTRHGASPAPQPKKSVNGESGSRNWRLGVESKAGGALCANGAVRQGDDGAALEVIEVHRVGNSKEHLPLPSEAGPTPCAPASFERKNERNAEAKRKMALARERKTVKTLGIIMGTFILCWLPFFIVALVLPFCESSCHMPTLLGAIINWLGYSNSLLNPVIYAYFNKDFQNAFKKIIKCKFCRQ

[10] = Luminescence Cell-Based Dose Confirmation HTS to Identify Inhibitors of Platelet Dense Granule Release. [Related pubchem assays: 1663 (Primary HTS), 1678 (Summary of Project)]; format: functional
[11] = biological target: Luciferin 4-monooxygenase (Photinus pyralis, UniProt P08659); test: firefly luciferase enzyme inhibitors, dose response, biochemical, luminescence (AID 1891)
Sequence of Luciferin 4-monooxygenase (P08659 whole entry): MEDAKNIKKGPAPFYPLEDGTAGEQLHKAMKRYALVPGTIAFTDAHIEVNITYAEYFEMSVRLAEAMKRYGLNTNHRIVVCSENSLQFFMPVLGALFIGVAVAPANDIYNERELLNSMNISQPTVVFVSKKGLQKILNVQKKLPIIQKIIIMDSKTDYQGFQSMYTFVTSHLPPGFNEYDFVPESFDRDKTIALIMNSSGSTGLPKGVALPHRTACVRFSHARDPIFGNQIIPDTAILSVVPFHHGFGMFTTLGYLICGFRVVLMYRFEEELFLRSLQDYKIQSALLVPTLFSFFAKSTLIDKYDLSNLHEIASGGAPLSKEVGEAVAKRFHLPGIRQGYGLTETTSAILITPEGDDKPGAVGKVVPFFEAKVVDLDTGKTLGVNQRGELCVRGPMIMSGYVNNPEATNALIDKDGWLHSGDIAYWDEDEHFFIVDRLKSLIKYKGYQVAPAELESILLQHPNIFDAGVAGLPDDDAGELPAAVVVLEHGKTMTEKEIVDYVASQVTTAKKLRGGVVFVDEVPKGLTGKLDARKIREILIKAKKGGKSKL

[12] = Fluorescence Cell-Based Dose Response to Identify Inhibitors of Thrombin Receptor-Activating Peptide SFLLRN-Mediated P-Selectin Induction on Platelets. [Related pubchem assays: 1663 (Primary HTS), 1889 (retest at dose ), 1891 (counterscreen), 1678 (Project Summary)]; format: functional
[13] = biological target: Aryl hydrocarbon receptor (Homo sapiens, UniProt P35869); test: Luminescence-based cell-based high throughput dose response assay for activators of the Aryl Hydrocarbon Receptor (AHR). [Related pubchem assays: 2796 (Primary screen (AHR activators in singlicate)), 2845 (Confirmation screen (AHR activators in triplicate)), 434939 (Counterscreen (PXR activators in triplicate)), 2804 (Summary (AHR activators))]; format: ADME
Sequence of Aryl hydrocarbon receptor (P35869 whole entry): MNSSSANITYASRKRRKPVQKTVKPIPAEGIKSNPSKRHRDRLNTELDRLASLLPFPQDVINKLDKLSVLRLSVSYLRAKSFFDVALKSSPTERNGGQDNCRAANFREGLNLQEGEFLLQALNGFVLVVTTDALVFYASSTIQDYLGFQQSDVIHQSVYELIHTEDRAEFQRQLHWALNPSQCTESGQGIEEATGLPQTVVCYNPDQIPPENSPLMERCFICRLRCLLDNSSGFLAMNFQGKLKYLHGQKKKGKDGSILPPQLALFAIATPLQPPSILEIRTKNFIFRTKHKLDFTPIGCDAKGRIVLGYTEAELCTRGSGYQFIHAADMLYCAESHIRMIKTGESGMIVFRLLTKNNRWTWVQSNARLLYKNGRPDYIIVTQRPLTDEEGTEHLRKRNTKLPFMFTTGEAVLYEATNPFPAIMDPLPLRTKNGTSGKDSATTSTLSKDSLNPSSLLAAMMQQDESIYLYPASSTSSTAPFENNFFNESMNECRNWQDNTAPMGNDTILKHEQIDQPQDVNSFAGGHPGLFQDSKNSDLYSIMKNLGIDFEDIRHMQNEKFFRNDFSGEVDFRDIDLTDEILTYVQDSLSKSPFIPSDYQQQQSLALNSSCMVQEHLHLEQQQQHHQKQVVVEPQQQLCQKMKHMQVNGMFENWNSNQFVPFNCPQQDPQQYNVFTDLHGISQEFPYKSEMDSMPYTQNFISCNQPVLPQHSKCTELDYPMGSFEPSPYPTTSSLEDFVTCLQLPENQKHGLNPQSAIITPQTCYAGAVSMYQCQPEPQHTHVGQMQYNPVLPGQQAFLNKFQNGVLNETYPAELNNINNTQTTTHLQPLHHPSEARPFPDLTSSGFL

CSc1nc(N(CCO)CCO)c2sc3nc(-c4ccco4)c4c(c3c2n1)CCC4
EC50 [1]: 5.95 µM (active)
IC50 [2]: > 50 µM (not active)
IC50 [3]: > 20 µM (inactive)
IC50 [4]: 57.3 µM (inconclusive)
EC50 [5]: 12.6 µM (active)
CC50 [6]: > 40 µM (active)
IC50 [7]: > 10 µM (not active)
IC50 [8]: > 34.6 µM (active)

CCCCN(C)CCCNC(=O)Cn1c(=O)sc2ccccc21
EC50 [9]: > 50 µM (not active)

COc1cc2c(cc1OC)-c1cc(N3CCc4ccccc43)nc(=O)n1CC2
EC50 [10]: 6.83 µM (active)
EC50 [11]: > 112 µM (not active)
EC50 [12]: < 0.3 µM (active)

NNc1nc(O)c2c3c(sc2n1)-c1ccccc1CC3
EC50 [13]: 0.373 µM (active)
